The test system of assay [1] is excised wheat leaves (chlorophyll degradation in the dark). Description: Wheat leaf senescence assay (WLSA). Format: cell-based, Triticum aestivum cv. Hereward. As for the experimental part: (§1) Tobacco callus, Amaranthus and Wheat leaf senescence assay (WLSA) were performed as described by Holub et al. ([1998]) including the number of repetitions in each assay. An exception to the published protocols was that the tobacco callus assay was performed in 6-well microtiter plates (with each well containing 3 ml of Murashige Skoog medium into which 0.1 g of callus was added). Each compound was tested at least twice in each assay and in a wider concentration range to obtain concentration-dependent activity curves. IC50 means compound concentration at which chlorophyll degradation is inhibited by 50% and EC50 means half the maximal effective concentration.
(§2) Amaranthus assay evaluates the induction of betacyanin synthesis in Amaranthus (Amaranthus caudatus var. atropurpurea) cotyledons, which is induced by cytokinins (Bamberger and Mayer, [1960]). The WLSA evaluates the ability of compounds to retard chlorophyll degradation in excised wheat leaves that are kept in the dark. The wheat leaf segments (Triticum aestivum cv. Hereward) were used in all other experiments requiring wheat. Arabidopsis (Arabidopsis thaliana) leaf senescence assay was performed with detached leaves from 30-day-old plants, which were grown in soil in phytotron under standard conditions (Rivero et al., [2014]). Four leaves of a combined weight of 60 mg were placed in a six-well plate and stored in the dark for 12 days at 22°C. The leaves (except the fresh control leaves) floated on water solutions of tested compounds. Fresh control leaves were leaves detached from a plant and immediately used for chlorophyll determination. The duration of the senescence assay of Arabidopsis leaves was prolonged to highlight the difference in chlorophyll content between a negative control and treatments. Arabidopsis leaves were losing chlorophyll more slowly than wheat leaves. Chlorophyll extraction and spectrophotometric determination of its content was done according to Holub et al. ([1998]).

The test system is the same in assay [2]. Particulars: read-out: WLSA IC50; ref Gajdošová et al., [2011]; cited from earlier work.
Assay [3] addresses T1, CRE1/AHK4 (Arabidopsis thaliana, UniProt Q9C5U0). Particulars: read-out: CRE1/AHK4 receptor activation EC50 (previous study); ref Nisler et al., [2010]; cited from earlier work.
Assay [4] addresses T1, CRE1/AHK4. The assay is described as follows: Cytokinin receptor activation assay in E. coli (CRE1/AHK4). Set-up: expressed in transfected cells; host or cells: Escherichia coli strain KMI001, plasmid pIN-IIIAHK4. It counts as cell-based. The text has this:
(§3) The activity of this enzyme is finally measured in the assay and corresponds to the ability of the tested compound to activate this cytokinin receptor. Both assays were done at least twice and the presented graphs are the most representative examples.

Assay [5] deals with cytokinin-dependent tobacco callus. Description: Tobacco callus bioassay. Format: cell-based. Particulars: Nicotiana tabacum, read-out: Tobacco callus bioassay (EC50, μM). The protocol:
as §1

Assay [6] deals with T2, AHK3 (Arabidopsis thaliana, UniProt Q9C5U1).
T2 construct: expressed in transfected cells; host or cells: Escherichia coli strain KMI001, plasmid pSTV28-AHK3
T2 sequence (Q9C5U1 1-1036): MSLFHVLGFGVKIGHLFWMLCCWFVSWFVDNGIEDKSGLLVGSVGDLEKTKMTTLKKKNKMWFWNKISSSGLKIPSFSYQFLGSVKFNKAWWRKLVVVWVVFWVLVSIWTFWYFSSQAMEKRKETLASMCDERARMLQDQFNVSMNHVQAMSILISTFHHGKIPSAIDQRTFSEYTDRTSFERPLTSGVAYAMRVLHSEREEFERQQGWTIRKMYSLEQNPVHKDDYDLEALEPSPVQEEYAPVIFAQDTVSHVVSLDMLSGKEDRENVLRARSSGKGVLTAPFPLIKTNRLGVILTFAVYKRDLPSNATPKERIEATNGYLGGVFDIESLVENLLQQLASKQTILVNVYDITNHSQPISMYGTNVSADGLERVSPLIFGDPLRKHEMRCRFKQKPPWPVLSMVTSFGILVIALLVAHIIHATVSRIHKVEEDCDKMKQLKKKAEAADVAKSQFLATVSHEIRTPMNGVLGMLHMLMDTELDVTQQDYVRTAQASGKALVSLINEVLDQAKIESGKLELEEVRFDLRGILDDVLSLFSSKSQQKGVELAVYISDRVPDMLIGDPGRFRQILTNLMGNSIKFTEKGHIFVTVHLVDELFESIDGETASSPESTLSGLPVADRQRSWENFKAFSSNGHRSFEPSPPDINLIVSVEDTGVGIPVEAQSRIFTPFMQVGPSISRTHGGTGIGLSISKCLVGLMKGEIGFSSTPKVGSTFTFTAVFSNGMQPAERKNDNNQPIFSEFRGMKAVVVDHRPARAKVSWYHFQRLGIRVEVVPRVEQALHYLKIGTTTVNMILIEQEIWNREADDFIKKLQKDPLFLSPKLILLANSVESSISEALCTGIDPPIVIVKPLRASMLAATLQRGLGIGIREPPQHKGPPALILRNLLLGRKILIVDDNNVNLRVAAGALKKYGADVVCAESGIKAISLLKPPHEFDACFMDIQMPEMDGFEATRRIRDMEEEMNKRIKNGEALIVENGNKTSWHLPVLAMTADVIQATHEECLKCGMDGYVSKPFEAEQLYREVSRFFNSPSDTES
Description: Cytokinin receptor activation assay in E. coli (AHK3). It counts as cell-based.
Source text: as §3

In assay [7] the test system is Amaranthus caudatus cotyledon-hypocotyl explants. The assay is described as follows: Amaranthus bioassay (betacyanin synthesis). The conditions noted are these: Amaranthus caudatus, read-out: Amaranthus bioassay (EC50, μM). It counts as cell-based, Amaranthus caudatus var. atropurpurea. The protocol:
as §1, §2

The subject of assay [8] is ARR5:GUS reporter gene. Description: Arabidopsis ARR5:GUS reporter gene assay. Format: in vivo, Arabidopsis thaliana. The conditions noted are these: Arabidopsis thaliana, read-out: ARR5:GUS activation EC50. The protocol: Transgenic Arabidopsis plants (Arabidopsis thaliana (L.) Heynh. accession Wassilewskija) harboring the GUS reporter gene (gene for β-glucuronidase) fused to 1.6 kb of the ARR5 (PARR5−GUS) gene promoter (D'Agostino et al., [2000]) were kindly provided by professor Thomas Schmülling. The assay was performed according to Romanov et al. ([2002]). β-Glucuronidase (GUS) activity was quantitatively determined by measuring fluorescence of 4-methylumbelliferyl (MU) on a Synergy H4 hybrid reader (Biotek, Winooski, VT) with excitation and emission wavelengths of 365 and 445 nm, respectively. GUS specific activity was determined as nmol MU × mg protein^−1 × h^−1. This was calculated by dividing the relative fluorescence units (obtained per hour) by protein content of the same sample. Protein extraction was done as described by Romanov et al. ([2002]) but its content was determined using a bicinchoninic acid reagent (Smith et al., [1985]). Finally we expressed the GUS activity in samples as a relative percentage, the activity of 1 μM BA being set as 100% activation. The concentration-dependent activity curves and EC50 values (for TDZ, tZ, BA, TD-iP, and TD-tZ) were constructed using Scion image program.
A general note: A reporter such as luciferase makes a cellular process visible.

Read-outs that look alike come from different tables or passages of the source.

T1 sequence (Q9C5U0 whole entry): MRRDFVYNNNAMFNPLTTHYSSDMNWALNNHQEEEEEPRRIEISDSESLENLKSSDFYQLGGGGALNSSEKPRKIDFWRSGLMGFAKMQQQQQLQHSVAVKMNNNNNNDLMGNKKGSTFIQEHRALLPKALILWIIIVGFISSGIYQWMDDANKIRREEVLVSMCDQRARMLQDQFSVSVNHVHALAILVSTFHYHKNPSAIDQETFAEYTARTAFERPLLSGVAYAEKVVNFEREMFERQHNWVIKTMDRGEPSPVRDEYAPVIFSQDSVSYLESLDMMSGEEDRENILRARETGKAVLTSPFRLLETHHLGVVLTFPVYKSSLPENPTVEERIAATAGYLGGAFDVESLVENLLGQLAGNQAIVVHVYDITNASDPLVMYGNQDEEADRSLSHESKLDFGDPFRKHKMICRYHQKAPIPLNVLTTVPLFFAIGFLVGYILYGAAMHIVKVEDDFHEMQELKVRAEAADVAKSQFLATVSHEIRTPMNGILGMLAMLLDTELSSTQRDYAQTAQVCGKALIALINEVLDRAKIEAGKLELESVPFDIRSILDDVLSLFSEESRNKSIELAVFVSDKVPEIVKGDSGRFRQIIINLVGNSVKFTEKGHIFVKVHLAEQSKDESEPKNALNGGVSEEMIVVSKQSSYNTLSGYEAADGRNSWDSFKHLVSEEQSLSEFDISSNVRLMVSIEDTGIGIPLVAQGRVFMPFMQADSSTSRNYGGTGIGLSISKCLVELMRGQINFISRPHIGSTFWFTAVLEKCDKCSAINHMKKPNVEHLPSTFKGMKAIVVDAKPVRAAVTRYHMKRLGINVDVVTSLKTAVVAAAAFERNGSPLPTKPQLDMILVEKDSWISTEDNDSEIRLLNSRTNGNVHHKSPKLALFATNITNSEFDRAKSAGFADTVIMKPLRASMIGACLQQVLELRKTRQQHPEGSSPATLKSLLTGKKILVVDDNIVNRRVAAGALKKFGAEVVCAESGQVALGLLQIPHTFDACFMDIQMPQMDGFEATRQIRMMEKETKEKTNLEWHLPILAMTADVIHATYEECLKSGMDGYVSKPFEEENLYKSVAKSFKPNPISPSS

In the case of `C/C(=C/CNc1ncnc2nc[nH]c12)CO` [cis-zeatin, reference compound], in assay [1], the “IC50 in WLSA, fold higher than IC50 of ASES” value is recorded as 300 fold and the “IC50 in WLSA, fold higher than IC50 of tZ” value is on record as 10 fold. Further, the IC50 (commonly the point on the concentration scale where inhibition reaches its midpoint) in assay [2] was around 300000 nM.
Turning to `C/C(=C\CNc1ncnc2[nH]cnc12)CO` [tZ, trans-zeatin, reference compound], the EC50 in assay [3] is 200 nM; in assay [4], 350 nM; in assay [5], 0.012 µM; in assay [6], 66 nM; in assay [7] it was 0.9 µM; in assay [8] it was 9 nM. Further, the IC50 in assay [1] (Triticum aestivum, 120 h, read-out: Senescence bioassay (IC50, μM)) turned out to be 30 µM.

These data come from publication PMC6142817, “New Urea Derivatives Are Effective Anti-senescence Compounds Acting Most Likely via a Cytokinin-Independent Mechanism” (Frontiers in Plant Science, 2018).
